pIC50: −log10 of the molar value.
How the values were obtained:
BRD4 protein = BRD4 protein (Homo sapiens (Human), UniProt O60885); assay: BRD4 protein degradation inducing action in cancer cells (immunofluorescence, Operetta); assay type: cell-based; details: LNCaP cells, 6 hr treatment, fluorescence intensity
Method: The degradation inducing action of the compound of the present invention on BRD4 protein in cancer cells was evaluated in vitro using human prostate cancer LNCaP cells. LNCaP cells were suspended in 10% FBS/RPMI1640, seeded in a 96 well Cell carrier plate (Perkin Elmer) and cultured at 5% CO2, 37° C. overnight. A test compound dissolved in DMSO was diluted with 10% FBS/RPMI1640 and added and the cells were further cultured for 6 hr. After culturing, the cells were immobilized with 4% para-formaldehyde/PBS and further subjected to a permeation treatment with 0.25% Triton X-100/PBS. Thereafter, the cells were blocked with 10% BSA/PBS, a solution containing Anti-Brd4 antibody (Abcam) or Anti-BRD4 (Sigma-Aldrich) as the primary antibody was added and the cells were incubated at 4° C. overnight. Thereafter, as the secondary antibody, a solution containing secondary antibody A shown below was added to Example compounds 1-190, 223 and 224, and a solution containing secondary antibody B shown below was added to Example compounds 191-222, and 0.5 μg/mL Hoechst 33342 (Sigma-Aldrich) and 14 μM Acti-Stain 555 Fluorescent Phalloidin (Cytoskeleton) were further added. After incubation for 1 hr, BRD4 protein amount was measured by Operetta (Perkin Elmer) as fluorescence intensity.
• Anti-Rabbit IgG(H+L), F(ab′)2 Fragment (Alexa Fluor 488 Conjugate) (Cell Signaling Technology), fluorescence intensity was measured at excitation: 495 nm, emission: 519 nm. Secondary Antibody B • Goat anti-Rabbit IgG(H+L) Cross-Adserbed Secondary Antibody (Alexa Fluor 546) (Thermo Fisher Scientific) fluorescence intensity was measured at excitation: 560 nm, emission: 572 nm.
The BRD4 protein degradation inducing activity of the compound of the present invention in LNCaP cells is shown in DC50 value in Table 3. The DC50 value is a concentration of the compound showing 50% fluorescence intensity when the fluorescence intensity thereof under compound untreated condition is 100%. It was calculated from the straight line connecting the fluorescence intensity at two points enclosing the 50% fluorescence intensity and the compound concentration.

[1] = tested on: human prostate cancer LNCaP cells; assay: Cytotoxic action on cancer cells (WST-8, 96 hr); assay type: cell-based; details: Homo sapiens, LNCaP, 96 h, read-out: LNCaP cytotoxic activity: IC50
Method: The cytotoxic action of the compound of the present invention against human cancer cells was evaluated in vitro. In this experiment, (+)-JQ1 (Nature volume 468, pages 1067-1073 (23 Dec. 2010)) known to have an inhibitory activity on the binding of BRD4 protein and a ligand therefor was used as a positive control drug. Respective cells were suspended in 10% FBS/RPMI1640, seeded in a 96 well plate and cultured at 5% CO2, 37° C. overnight. A test compound dissolved in DMSO was diluted with 10% FBS/RPMI1640 and added and the cells were further cultured for 96 hr. After culturing, the viable cell number was measured using a cell number measurement WST-8 kit (Kishida Chemical Co., Ltd.). As a control, the measurement was performed under conditions free of the test compound. The cytotoxic activity of the compound of the present invention against human prostate cancer LNCaP cells is shown in IC50 value in Table 1. […] It was calculated from the straight line connecting the cell survival rate at two points enclosing the 50% cell survival rate and the compound concentration. In addition, the cytotoxic activity against respective cancer cells of human acute myeloid leukemia MV-4-11 cell, human chronic myeloid leukemia K562 cell, human multiple myeloma MM.1S cell, human diffuse large B-cell lymphoma SU-DHL-6 cell, human T-cell leukemia Jurkat cells, human Burkitt lymphoma Raji cell, human castration-resistant prostate cancer PC-3 cell, human ovarian cancer A2780 cell, human bladder cancer 5637 cell, human breast cancer ZR-75-1 cell, human triple negative breast cancer MDA-MB-231 cell, human uterine sarcoma MES-SA cell, human gastric cancer SNU-16 cell, human non-small cell lung cancer NCI-H1975 cell, human small cell lung cancer NCI-H82 cell, human large cell lung cancer NCI-H460 cell, human colorectal cancer HCT116 cell, human glioma U-87 MG cell, human pancreatic cancer AsPC-1 cell, and human liver cancer Hep G2 cell is shown in IC50 value in Table 2.

COC(=O)C[C@@H]1N=C(c2ccc(NC(=O)CCc3ccc(OCCOCCOCCOCCOCCOCCOCCOCC(=O)N[C@H](C(=O)N4C[C@H](O)C[C@H]4C(=O)N[C@@H](C)c4ccc(-c5scnc5C)cc4)C(C)(C)C)cc3)cc2)c2c(sc(C)c2C)-n2c(C)nnc21 [Example 5, methyl [(6S)-4-(4-{3-[4-({(25S)-25-[(2S,4R)-4-hydroxy-2-({(18)-1-[4-(4-methyl-1,3-thiazol-5-yl)phenyl]ethyl}carbamoyl)pyrrolidine-1-carbonyl]-26,26-dimethyl-23-oxo-3,6,9,12,15,18,21-heptaoxa-24-azaheptacosan-1-yl}oxy)phenyl]propanamido}phenyl)-2,3,9-trimethyl-6H-thieno[3,2-f][1,2,4]triazolo[4,3-a][1,4]diazepin-6-yl]acetate]
DC50 (BRD4 protein): 0.52 nM
pIC50 [1]: 8.92

COC(=O)C[C@@H]1N=C(c2ccc(-c3ccc(OCC(=O)N[C@H](C(=O)N4C[C@H](O)C[C@H]4C(=O)N[C@@H](C)c4ccc(-c5scnc5C)cc4)C(C)(C)C)cc3)cc2)c2c(sc(C)c2C)-n2c(C)nnc21 [Example 15, methyl [(6S)-4-{4′-[2-({(2S)-1-[(2S,4R)-4-hydroxy-2-({(1S)-1-[4-(4-methyl-1,3-thiazol-5-yl)phenyl]ethyl}carbamoyl)pyrrolidin-1-yl]-3,3-dimethyl-1-oxobutan-2-yl}amino)-2-oxoethoxy][1,1′-biphenyl]-4-yl}-2,3,9-trimethyl-6H-thieno[3,2-f][1,2,4]triazolo[4,3-a][1,4]diazepin-6-yl]acetate]
DC50 (BRD4 protein): 0.066 nM
pIC50 [1]: 10.08

Cc1ncsc1-c1ccc([C@H](C)NC(=O)[C@@H]2C[C@@H](O)CN2C(=O)[C@@H](NC(=O)COc2ccc(-c3ccc(C4=N[C@@H](C)c5nnc(C)n5-c5sc(C)c(C)c54)cc3)cc2C#N)C(C)(C)C)cc1 [Example 16, (2S,4R)-1-{(2S)-2-[2-({3-cyano-4′-[(6S)-2,3,6,9-tetramethyl-6H-thieno[3,2-f][1,2,4]triazolo[4,3-a] [1,4]diazepin-4-yl][1,1′-biphenyl]-4-yl}oxy)acetamido]-3,3-dimethylbutanoyl}-4-hydroxy-N-{(1S)-1-[4-(4-methyl-1,3-thiazol-5-yl)phenyl]ethyl}pyrrolidine-2-carboxamide]
DC50 (BRD4 protein): 0.53 nM
pIC50 [1]: 9.54

COC(=O)C[C@@H]1N=C(c2ccc(-c3ccc(/C=C/C(=O)N[C@H](C(=O)N4C[C@H](O)C[C@H]4C(=O)N[C@@H](C)c4ccc(-c5scnc5C)cc4)C(C)(C)C)cc3)cc2)c2c(sc(C)c2C)-n2c(C)nnc21 [Example 27, methyl [(6S)-4-{4′-[(1E)-3-({(2S)-1-[(2S,4R)-4-hydroxy-2-({(1S)-1-[4-(4-methyl-1,3-thiazol-5-yl)phenyl]ethyl}carbamoyl)pyrrolidin-1-yl]-3,3-dimethyl-1-oxobutan-2-yl}amino)-3-oxopropen-1-yl][1,1′-biphenyl]-4-yl}-2,3,9-trimethyl-6H-thieno[3,2-f][1,2,4]triazolo[4,3-a] [1,4]diazepin-6-yl]acetate]
DC50 (BRD4 protein): 0.085 nM
pIC50 [1]: 10.19

COC(=O)C[C@@H]1N=C(c2ccc(-c3ccc(CCC(=O)N[C@H](C(=O)N4C[C@H](O)C[C@H]4C(=O)N[C@@H](C)c4ccc(-c5scnc5C)cc4)C(C)(C)C)cc3)cc2)c2c(sc(C)c2C)-n2c(C)nnc21 [Example 28, methyl [(6S)-4-{4′-[3-({(2S)-1-[(2S,4R)-4-hydroxy-2-({(1S)-1-[4-(4-methyl-1,3-thiazol-5-yl)phenyl]ethyl}carbamoyl)pyrrolidin-1-yl]-3,3-dimethyl-1-oxobutan-2-yl}amino)-3-oxopropyl][1,1′-biphenyl]-4-yl}-2,3,9-trimethyl-6H-thieno[3,2-f][1,2,4]triazolo[4,3-a][1,4]diazepin-6-yl]acetate]
DC50 (BRD4 protein): 0.023 nM
pIC50 [1]: 10.36

Cc1ncsc1-c1ccc([C@H](C)NC(=O)[C@@H]2C[C@@H](O)CN2C(=O)[C@@H](NC(=O)COc2ccc(-c3ccc(C4=NC(O)c5nnc(C)n5-c5sc(C)c(C)c54)cc3)cc2)C(C)(C)C)cc1 (stereo partly drawn) [Example 30, (2S,4R)-4-hydroxy-1-[(2S)-2-(2-{[4′-(6-hydroxy-2,3,9-trimethyl-6H-thieno[3,2-f][1,2,4]triazolo[4,3-a][1,4]diazepin-4-yl)[1,1′-biphenyl]-4-yl]oxy}acetamido)-3,3-dimethylbutanoyl]-N-{(1S)-1-[4-(4-methyl-1,3-thiazol-5-yl)phenyl]ethyl}pyrrolidine-2-carboxamide]
DC50 (BRD4 protein): 0.43 nM
pIC50 [1]: 9.00

Cc1ncsc1-c1ccc([C@H](C)NC(=O)[C@@H]2C[C@@H](O)CN2C(=O)[C@@H](NC(=O)COc2ccc(-c3ccc(C4=N[C@@H](C)c5nnc(C)n5-c5sc(C)c(C)c54)cc3)cc2)C(C)(C)C)cc1 [Example 33, (2S,4R)-1-{(2S)-3,3-dimethyl-2-[2-({4′-[(6S)-2,3,6,9-tetramethyl-6H-thieno[3,2-f][1,2,4]triazolo[4,3-a] [1,4]diazepin-4-yl][1,1′-biphenyl]-4-yl}oxy)acetamido]butanoyl}-4-hydroxy-N-{(1S)-1-[4-(4-methyl-1,3-thiazol-5-yl)phenyl]ethyl}pyrrolidine-2-carboxamide]
DC50 (BRD4 protein): 0.38 nM
pIC50 [1]: 9.59

CC(=O)NC1N=C(c2ccc(-c3ccc(OCC(=O)N[C@H](C(=O)N4C[C@H](O)C[C@H]4C(=O)N[C@@H](C)c4ccc(-c5scnc5C)cc4)C(C)(C)C)cc3)cc2)c2c(sc(C)c2C)-n2c(C)nnc21 (stereo partly drawn) [Example 34, (2S,4R)-1-[(2S)-2-(2-{[4′-(6-acetamido-2,3,9-trimethyl-6H-thieno[3,2-f][1,2,4]triazolo[4,3-a][1,4]diazepin-4-yl) [1,1′-biphenyl]-4-yl]oxy}acetamido)-3,3-dimethylbutanoyl]-4-hydroxy-N-{(1S)-1-[4-(4-methyl-1,3-thiazol-5-yl)phenyl]ethyl}pyrrolidine-2-carboxamide]
DC50 (BRD4 protein): 0.098 nM
pIC50 [1]: 9.14

COC(=O)N(C)C1N=C(c2ccc(-c3ccc(OCC(=O)N[C@H](C(=O)N4C[C@H](O)C[C@H]4C(=O)N[C@@H](C)c4ccc(-c5scnc5C)cc4)C(C)(C)C)cc3)cc2)c2c(sc(C)c2C)-n2c(C)nnc21 (stereo partly drawn) [Example 35, methyl (4-{4′-[2-({(2S)-1-[(2S,4R)-4-hydroxy-2-({(1S)-1-[4-(4-methyl-1,3-thiazol-5-yl)phenyl]ethyl}carbamoyl)pyrrolidin-1-yl]-3,3-dimethyl-1-oxobutan-2-yl}amino)-2-oxoethoxy][1,1′-biphenyl]-4-yl}-2,3,9-trimethyl-6H-thieno[3,2-f][1,2,4]triazolo[4,3-a][1,4]diazepin-6-yl)methylcarbamate]
DC50 (BRD4 protein): 0.66 nM
pIC50 [1]: 8.41

COC(=O)C[C@@H]1N=C(c2ccc(-c3ccc(COCC(=O)N[C@H](C(=O)N4C[C@H](O)C[C@H]4C(=O)N[C@@H](C)c4ccc(-c5scnc5C)cc4)C(C)(C)C)cc3)cc2)c2c(sc(C)c2C)-n2c(C)nnc21 [Example 39, methyl [(6S)-4-(4′-{[2-({(2S)-1-[(2S,4R)-4-hydroxy-2-({(1S)-1-[4-(4-methyl-1,3-thiazol-5-yl)phenyl]ethyl}carbamoyl)pyrrolidin-1-yl]-3,3-dimethyl-1-oxobutan-2-yl}amino)-2-oxoethoxy]methyl}[1,1′-biphenyl]-4-yl)-2,3,9-trimethyl-6H-thieno[3,2-f][1,2,4]triazolo[4,3-a] [1,4]diazepin-6-yl]acetate]
DC50 (BRD4 protein): 0.013 nM
pIC50 [1]: 10.15
